This note sets out measurements from ChEMBL document CHEMBL5729649, “Enzyme inhibitors” (2023).

One assay deals with Plasma kallikrein (Homo sapiens, UniProt P03952). In words: (§1) Determination of the IC50 for Plasma Kallikrein: Plasma kallikrein inhibitory activity in vitro was determined using standard published methods (see e.g. Johansen et al., Int. J. Tiss. Reac. 1986, 8, 185; Shori et al., Biochem. Pharmacol., 1992, 43, 1209; Sturzebecher et al., Biol. Chem. Hoppe-Seyler, 1992, 373, 1025). Human plasma kallikrein (Protogen) was incubated at 25° C. with the fluorogenic substrate H-DPro-Phe-Arg-AFC and various concentrations of the test compound. Residual enzyme activity (initial rate of reaction) was determined by measuring the change in optical absorbance at 410 nm and the IC50 value for the test compound was determined.
Chain of Plasma kallikrein (P03952 20-390 limits assumed): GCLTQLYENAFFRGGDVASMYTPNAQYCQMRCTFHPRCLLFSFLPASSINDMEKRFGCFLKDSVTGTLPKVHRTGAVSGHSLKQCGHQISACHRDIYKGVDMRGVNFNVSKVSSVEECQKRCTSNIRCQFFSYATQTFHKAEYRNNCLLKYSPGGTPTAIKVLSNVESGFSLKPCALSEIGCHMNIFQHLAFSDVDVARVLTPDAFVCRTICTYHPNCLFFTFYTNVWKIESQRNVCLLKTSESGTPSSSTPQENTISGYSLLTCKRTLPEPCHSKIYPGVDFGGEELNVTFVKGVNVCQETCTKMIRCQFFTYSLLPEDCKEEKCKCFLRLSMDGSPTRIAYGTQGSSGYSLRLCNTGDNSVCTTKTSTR
Chain of Plasma kallikrein (P03952 391-638 limits assumed): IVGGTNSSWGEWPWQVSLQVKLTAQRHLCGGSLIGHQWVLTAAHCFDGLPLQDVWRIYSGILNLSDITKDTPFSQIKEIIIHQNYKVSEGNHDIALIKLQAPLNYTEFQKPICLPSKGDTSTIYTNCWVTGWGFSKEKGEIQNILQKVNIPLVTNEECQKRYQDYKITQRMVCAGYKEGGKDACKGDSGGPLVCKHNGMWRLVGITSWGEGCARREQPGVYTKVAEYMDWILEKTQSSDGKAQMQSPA

The target of the next assay is Coagulation factor XI (Homo sapiens, UniProt P03951). In words: Determination of the % Inhibition for FXIa: FXIa inhibitory activity in vitro was determined using standard published methods (see e.g. Johansen et al., Int. J. Tiss. Reac. 1986, 8, 185; Shori et al., Biochem. Pharmacol., 1992, 43, 1209; Sturzebecher et al., Biol. Chem. Hoppe-Seyler, 1992, 373, 1025). Human FXIa (Enzyme Research Laboratories) was incubated at 25° C. with the fluorogenic substrate Z-Gly-Pro-Arg-AFC and 40 μM of the test compound (or alternatively at various concentrations of the test compound in order to determine IC50). Residual enzyme activity (initial rate of reaction) was determined by measuring the change in optical absorbance at 410 nm and the IC50 value for the test compound was determined.
Chain of Coagulation factor XI (P03951 19-387 limits assumed): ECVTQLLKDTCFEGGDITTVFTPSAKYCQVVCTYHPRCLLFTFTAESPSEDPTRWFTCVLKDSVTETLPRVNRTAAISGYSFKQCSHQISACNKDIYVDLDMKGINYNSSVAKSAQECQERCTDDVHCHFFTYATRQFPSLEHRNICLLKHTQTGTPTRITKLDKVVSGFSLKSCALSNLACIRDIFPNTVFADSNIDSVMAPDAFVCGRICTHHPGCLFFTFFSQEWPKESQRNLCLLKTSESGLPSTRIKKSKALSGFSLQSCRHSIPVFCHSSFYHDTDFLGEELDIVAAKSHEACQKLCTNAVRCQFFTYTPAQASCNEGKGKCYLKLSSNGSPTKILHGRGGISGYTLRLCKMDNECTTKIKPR
Chain of Coagulation factor XI (P03951 388-625 limits assumed): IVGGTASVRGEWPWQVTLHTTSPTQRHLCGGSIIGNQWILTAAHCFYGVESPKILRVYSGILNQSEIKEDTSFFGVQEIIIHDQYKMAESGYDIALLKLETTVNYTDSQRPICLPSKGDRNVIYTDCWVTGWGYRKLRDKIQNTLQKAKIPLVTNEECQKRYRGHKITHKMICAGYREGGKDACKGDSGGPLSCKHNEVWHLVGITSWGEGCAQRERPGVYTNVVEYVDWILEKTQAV

For another assay, the target named is Kallikrein-1 (Homo sapiens, UniProt P06870). Described as §1, with “KLK1: KLK1” for “Plasma Kallikrein: Plasma kallikrein”, “KLK1 (Callbiochem)” for “plasma kallikrein (Protogen)”, “H-DVal-Leu-Arg-AFC” for “H-DPro-Phe-Arg-AFC”.
Chain of Kallikrein-1 (P06870 whole entry): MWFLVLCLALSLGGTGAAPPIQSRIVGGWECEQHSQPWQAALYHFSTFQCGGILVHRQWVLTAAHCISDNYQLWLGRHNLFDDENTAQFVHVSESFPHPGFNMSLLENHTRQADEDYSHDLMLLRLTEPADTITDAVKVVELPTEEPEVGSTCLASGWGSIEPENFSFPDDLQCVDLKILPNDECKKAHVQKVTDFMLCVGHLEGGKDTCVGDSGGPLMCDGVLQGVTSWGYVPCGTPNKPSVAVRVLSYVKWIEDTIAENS

Molecules are shown by their SMILES.

As to `COCc1nn(Cc2ccc3c(c2)CN(C(C)C)C3)cc1C(=O)NCc1c(-n2cc(C)nn2)ccc(OC)c1F`, the IC50 against Plasma kallikrein was below 0.01 µM; against Coagulation factor XI it was above 40 µM; at Kallikrein-1, above 40 µM.
Take `COCc1nn(Cc2cnc(N3CCCC3)nc2)cc1C(=O)NCc1c(-n2ccnn2)ccc(OC)c1F`: the IC50 is below 0.01 µM against Plasma kallikrein, 0.97 µM against Coagulation factor XI and above 40 µM at Kallikrein-1.
On to `COCc1nn(Cc2cnc(N3CCCC3)nc2)cc1C(=O)NCc1c(-n2cc(C)nn2)ccc(OC)c1F`, for which the IC50 is below 0.01 µM against Plasma kallikrein, 1.84 µM against Coagulation factor XI and above 40 µM at Kallikrein-1.

In general, IC50 refers to the concentration needed to halve the response being measured.
